The values that follow are results of earlier work, collected in US8815262B2, “Pharmaceutical composition and preparation for oral administration” (FUJIFILM Corporation, priority 2010, dated 2014).

What is called bioavailability is the share of a dose that reaches the circulation, judged against a reference dose that is usually intravenous.

Each structure is given as a SMILES string.

For the data set the following is noted: oral administration.

Take `CC(=O)O[C@H]1C(=O)[C@@]2(C)[C@H]([C@H](OC(=O)c3ccccc3)[C@]3(O)C[C@H](OC(=O)[C@H](O)[C@@H](NC(=O)c4ccccc4)c4ccccc4)C(C)=C1C3(C)C)[C@]1(OC(C)=O)CO[C@@H]1C[C@@H]2O` [paclitaxel]: the bioavailability is no more than 4%.
